Assay results from PubChem BioAssay AID256 (DTP/NCI, 2004).
Several values for one entry are separate records, joined by “and”; a condition that tells them apart may be missing. Identical values can stand only once. Toxic doses and inconclusive results are not listed. How the source made its calls: active means survival T/C of 150% or more; inactive means T/C below 125% in these data.

Test system: CD2F1 mice, L1210 leukemia ip, survival T/C
Assay: NCI In Vivo Anticancer Drug Screen. Data for tumor model L1210 Leukemia (intraperitoneal) in CD2F1 (CDF1) mice
Conditions: endpoint: mean survival time, higher = longer survival
Method in brief: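 Compound-dosed mice with transplantable tumor versus matched vehicle controls; endpoint ratio T/C reported.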

Measured: T/C

NC(C/[N+]([O-])=N/O)C(=O)O (stereo not drawn)
inactive: dose: 5.0 mg/kg/injection, schedule: Q01DX009 (ip), vehicle: alkali diluted with saline 100 % of control | dose: 7.5 mg/kg/injection, schedule: Q01DX005 (ip), vehicle: alkali diluted with saline 98 % of control | dose: 8.0 mg/kg/injection, schedule: Q03HX008 (ip), vehicle: saline 111 % of control | dose: 8.0 mg/kg/injection, schedule: Q03HX016 (ip), vehicle: saline 105 % of control | dose: 8.0 mg/kg/injection, schedule: Q03HX024 (ip), vehicle: saline 109 % of control | dose: 8.78 mg/kg/injection, schedule: Q01DX010 (ip), vehicle: alkali diluted with saline 121 % of control | dose: 9.38 mg/kg/injection, schedule: Q01DX009 (ip), vehicle: alkali diluted with saline 118 % of control | dose: 10.0 mg/kg/injection, schedule: Q01DX009 (ip), vehicle: alkali diluted with saline 101 % of control | dose: 13.2 mg/kg/injection, schedule: Q01DX010 (ip), vehicle: alkali diluted with saline 120 % of control | dose: 15.0 mg/kg/injection, schedule: Q01DX005 (ip), vehicle: alkali diluted with saline 113 % of control | dose: 16.0 mg/kg/injection, schedule: Q01DX009 (sc), vehicle: saline 97 % of control | dose: 16.0 mg/kg/injection, schedule: Q03HX008 (ip), vehicle: saline 112 % of control | dose: 16.0 mg/kg/injection, schedule: Q03HX016 (ip), vehicle: saline 104 % of control | dose: 16.0 mg/kg/injection, schedule: Q03HX024 (ip), vehicle: saline 112 % of control | dose: 18.75 mg/kg/injection, schedule: Q01DX009 (ip), vehicle: alkali diluted with saline 119 % of control | dose: 18.8 mg/kg/injection, schedule: Q01DX009 (ip), vehicle: alkali diluted with saline 102 % of control | dose: 19.8 mg/kg/injection, schedule: Q01DX010 (ip), vehicle: alkali diluted with saline 121 % of control | dose: 20.0 mg/kg/injection, schedule: Q01DX009 (ip), vehicle: alkali diluted with saline 105 % of control | dose: 28.12 mg/kg/injection, schedule: Q04DX003 (ip), vehicle: alkali diluted with saline 103 % of control | dose: 30.0 mg/kg/injection, schedule: Q01DX005 (ip), vehicle: alkali diluted with saline 122 % of control | dose: 32.0 mg/kg/injection, schedule: Q01DX009 (ip), vehicle: saline 123 % of control | dose: 32.0 mg/kg/injection, schedule: Q01DX009 (sc), vehicle: saline 103 % of control | dose: 32.0 mg/kg/injection, schedule: Q03HX008 (ip), vehicle: saline 108 % of control | dose: 32.0 mg/kg/injection, schedule: Q03HX016 (ip), vehicle: saline 113 % of control | dose: 37.5 mg/kg/injection, schedule: Q01DX009 (ip), vehicle: alkali diluted with saline 120 % of control and 124 % of control | dose: 40.0 mg/kg/injection, schedule: Q01DX009 (ip), vehicle: alkali diluted with saline 120 % of control | dose: 56.25 mg/kg/injection, schedule: Q04DX003 (ip), vehicle: alkali diluted with saline 116 % of control and 103 % of control | dose: 64.0 mg/kg/injection, schedule: Q01DX001 (ip), vehicle: saline 111 % of control | dose: 64.0 mg/kg/injection, schedule: Q01DX009 (oral), vehicle: saline 96 % of control | dose: 64.0 mg/kg/injection, schedule: Q01DX009 (sc), vehicle: saline 111 % of control | dose: 64.0 mg/kg/injection, schedule: Q03HX008 (ip), vehicle: saline 116 % of control | dose: 64.0 mg/kg/injection, schedule: Q03HX016 (ip), vehicle: saline 116 % of control | dose: 64.0 mg/kg/injection, schedule: Q04DX003 (ip), vehicle: saline 116 % of control | dose: 64.0 mg/kg/injection, schedule: Q04DX003 (oral), vehicle: saline 98 % of control | dose: 64.0 mg/kg/injection, schedule: Q04DX003 (sc), vehicle: saline 96 % of control | dose: 64.0 mg/kg/injection, schedule: Q08DX002 (ip), vehicle: saline 109 % of control | dose: 112.5 mg/kg/injection, schedule: Q04DX003 (ip), vehicle: alkali diluted with saline 123 % of control | dose: 128.0 mg/kg/injection, schedule: Q01DX001 (ip), vehicle: saline 113 % of control | dose: 128.0 mg/kg/injection, schedule: Q01DX009 (ip), vehicle: saline 95 % of control | dose: 128.0 mg/kg/injection, schedule: Q01DX009 (oral), vehicle: saline 91 % of control | dose: 128.0 mg/kg/injection, schedule: Q01DX009 (sc), vehicle: saline 104 % of control | dose: 128.0 mg/kg/injection, schedule: Q04DX003 (oral), vehicle: saline 102 % of control | dose: 128.0 mg/kg/injection, schedule: Q04DX003 (sc), vehicle: saline 105 % of control
